Assay results published in patent US9505763B2, “Cancer treatment using BMP inhibitor” (Vanderbilt University, priority 2011, dated 2016).
“Also recorded” adds a separate entry of the source.

What was measured:
[1] = target: platelet-derived growth factor receptor-β (Homo sapiens, UniProt P09619); settings: compared with Dorsomorphin and LDN; cited from earlier work
[2] = tested on: A549 cells; assay: Clonogenic growth assay; type: cell-based; settings: 1 μM, 2 weeks
Protocol: (§1) Clonigenic Growth Assay. A549 and H1299 cells were plated into 6 well plates with 500 cells per well. The next day the cells were treated with DMSO or a BMP receptor antagonist for 2 weeks. The colonies were stained with Diff-Quick (IMEB Inc. San Marcos, Calif.) and the total number of colonies per well counted.

[3] = tested on: H1299 cells; assay: Clonogenic growth assay; type: cell-based; settings: 1 μM, 2 weeks
Protocol: as §1

[4] = tested on: H1299 cells; assay: Amine-reactive fluorescent dye (LIVE/DEAD) flow cytometry; type: cell-based
Protocol: Cell death was also determined using the LIVE/DEAD fixable dead cell stain kit as per manufacturer's instructions (Life Technologies, L-23101). This assay employs an amine-reactive fluorescent dye, which in compromised membranes the dye reacts with free amines on the cell interior in dead cells. H1299 cells were treated with DMH2 for 48 hours and the percentage of dead cells then detected by flow cytometry.

[5] = tested on: Smad 1/5/8 activity; assay: BRE-luciferase reporter assay; type: cell-based; settings: H1299 cells; 10 μM Dorsomorphin or 1 μM DMH1, DMH2, LDN; 48 hours; vs DMSO
Protocol: Luciferase Assays. 10^6 H1299 cells were transfected with 2 μg of BRE-luciferace plasmid using a Nucleofector II. […] Cells were lysed with luciferase lysis buffer (Promega). Samples were added to luciferase assay substrate (Promega) and luminsescence measured by the TD-20/20 Luminometer (Turner Designs/Turner BioSystems, Sunnyvale, Calif.). Control samples included luciferase assay substrate alone and luciferase assay substrate plus 1× reporter lysis buffer.

[6] = tested on: Id1, Id2, and Id3 expression; assay: Quantitative RT-PCR for Id family members; type: cell-based; settings: A549 and H1299 cell lines; 10 μM Dorsomorphin, 1 μM DMH1 or DMH2; 48 hours
Protocol: Quantification of Gene Expression. RNA was extracted using the RNeasy kit as per the manufacturer's instructions (Qiagen, Valencia, Calif.). DNAase was used to remove any DNA contamination. cDNA was generated using Advantage RT for PCR kit (BD BiosciencesClontech, Palo Alto, Calif.). Quantitative PCR was performed with the Stratagene Mx3005p (Agilent Technologies) and predesigned validated Taq-Man gene expression assays according to the manufacturer's specifications (Applied Biosystems, Foster City, Calif.). Reference numbers used are: GAPDH (Hs99999905_m1), ACVRL1 (alk1) (Hs00163543_m1), ACVR1A (alk2) (Hs00153836_m1), BMR1A (alk3) (Hs00831730_s1), BMPR1B (alk6) (Hs00176144_m1), Id1 (Hs00357821_g1), Id2 (Hs00747379_m1), and Id3 (Hs00171409-m1). Negative control included all reagents except cDNA. Expression was normalized to GAPDH using the formula […].

[7] = tested on: A549 cells; assay: Ethidium bromide uptake cell death assay; type: cell-based; settings: 48 hours, 10 μM Dorsomorphin or 1 μM selective antagonist
Protocol: Cell Death Assay: A549 and H1299 cells were plated in 6 well plates with 10^6 cells per well. Cells were treated with DMSO or a BMP receptor antagonist for 12 and 48 hours. Adherent and floating cells were harvested and incubated with 0.1 mg/ml of ethidium bromide. Immediately after staining approximately 100 cells were counted and the percentage of cells that took up ethidium bromide was determined.

[8] = target: T1, constitutively active alk3 (ca-alk3) (Homo sapiens, UniProt P36894, Q233D); assay: BRE-luciferase with constitutively active alk3 in H1299 cells; type: cell-based; settings: 1 μM antagonist
T1 construct: expressed in transfected cells; host or cells: H1299
Protocol: To assess the effects of antagonists on a specific type I BMP receptor, 2 μg of constitutively active ca-alk3 and ca-alk6 expression vectors were co-transfected with the BRE-luciferase reporter into H1299 cells with Nucleofector II. Control cells were co-transfected with the pcDNA3 expression vector. After 48 hours the cells were treated with DMSO or a BMP receptor antagonist for 48 hours and luminescence was measured.

T1 sequence (P36894 24-532 Q233D): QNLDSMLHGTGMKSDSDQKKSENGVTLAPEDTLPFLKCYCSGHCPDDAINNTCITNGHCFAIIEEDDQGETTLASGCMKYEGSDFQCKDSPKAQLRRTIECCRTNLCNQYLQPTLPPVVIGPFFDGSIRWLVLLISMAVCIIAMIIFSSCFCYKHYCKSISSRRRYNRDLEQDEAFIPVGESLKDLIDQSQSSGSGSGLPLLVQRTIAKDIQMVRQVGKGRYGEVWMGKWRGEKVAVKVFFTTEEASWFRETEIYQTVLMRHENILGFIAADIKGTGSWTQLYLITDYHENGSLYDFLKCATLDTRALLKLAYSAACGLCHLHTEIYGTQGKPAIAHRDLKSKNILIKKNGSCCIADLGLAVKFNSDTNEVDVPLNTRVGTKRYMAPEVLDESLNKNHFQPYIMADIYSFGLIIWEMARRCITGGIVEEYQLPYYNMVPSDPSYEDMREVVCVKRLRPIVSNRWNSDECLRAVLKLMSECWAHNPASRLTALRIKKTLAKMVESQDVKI
Sequence of platelet-derived growth factor receptor-β (P09619 33-1106, species assumed): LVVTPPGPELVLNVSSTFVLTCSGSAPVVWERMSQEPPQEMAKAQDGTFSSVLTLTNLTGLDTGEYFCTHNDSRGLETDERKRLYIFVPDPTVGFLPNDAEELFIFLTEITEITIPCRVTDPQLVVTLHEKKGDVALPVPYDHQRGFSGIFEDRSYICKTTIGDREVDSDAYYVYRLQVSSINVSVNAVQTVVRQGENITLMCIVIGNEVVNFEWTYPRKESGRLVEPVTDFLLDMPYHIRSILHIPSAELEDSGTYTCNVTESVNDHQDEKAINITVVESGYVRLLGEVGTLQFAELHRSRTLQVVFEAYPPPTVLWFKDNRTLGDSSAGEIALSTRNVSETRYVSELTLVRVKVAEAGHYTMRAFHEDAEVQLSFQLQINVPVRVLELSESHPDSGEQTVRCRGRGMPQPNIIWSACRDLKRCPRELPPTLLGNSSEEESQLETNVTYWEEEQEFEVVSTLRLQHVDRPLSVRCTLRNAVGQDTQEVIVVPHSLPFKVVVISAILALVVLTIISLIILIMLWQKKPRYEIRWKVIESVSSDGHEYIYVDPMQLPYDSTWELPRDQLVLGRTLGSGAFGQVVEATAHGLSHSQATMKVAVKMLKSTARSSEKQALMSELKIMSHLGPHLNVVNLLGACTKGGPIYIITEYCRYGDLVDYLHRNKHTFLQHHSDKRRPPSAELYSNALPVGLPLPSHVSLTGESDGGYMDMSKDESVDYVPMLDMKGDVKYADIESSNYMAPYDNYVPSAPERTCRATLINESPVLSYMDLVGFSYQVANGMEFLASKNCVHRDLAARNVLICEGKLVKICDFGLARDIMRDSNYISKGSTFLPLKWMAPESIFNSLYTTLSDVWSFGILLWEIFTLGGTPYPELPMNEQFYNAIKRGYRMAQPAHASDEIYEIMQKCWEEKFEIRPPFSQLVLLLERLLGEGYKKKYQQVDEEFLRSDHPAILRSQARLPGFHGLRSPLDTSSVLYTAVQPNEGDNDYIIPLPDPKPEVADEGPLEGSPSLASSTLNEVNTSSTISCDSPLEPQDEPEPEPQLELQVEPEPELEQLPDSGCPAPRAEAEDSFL

Structure (SMILES): CN(C)CCCOc1ccc(-c2cnc3c(-c4ccnc5ccccc45)cnn3c2)cc1 [DMH2]
- activity for platelet-derived growth factor receptor-β (comparison) [1]: less activity
- clonogenic growth [2]: inhibited more by DMH2 and LDN than DMH1
- clonogenic growth [3]: inhibited more by DMH2 and LDN than DMH1
- cell death (amine-reactive fluorescent dye) [4]: induced cell death
- Smad 1/5/8 activity (BRE-luciferase activity) [5]: significant decrease
- Id1, Id2, and Id3 expression (mRNA) [6]: significantly decreased
- cell death (percentage of cells taking up ethidium bromide) [7]: significant increase in cell death
- inhibition of ca-alk3 activity (BRE-luciferase) [8]: greater reduction of alk3 activity than DMH1 and LDN; also recorded: significant inhibition
